Read-outs that look alike come from different tables or passages of the source.

The text below walks through data of patent publication US8822517B2, “Arylosulfonamides for the treatment of CNS diseases” (Adamed SP. Z O.O., priority 2010, dated 2014).

Data set [1] concerns the target T1, serotonine transporter (SERT) receptor (Homo sapiens, UniProt P31645).
T1 construct: expressed in transfected cells; host or cells: CHO cells
In words: Binding assay SERT (h), [3H]imipramine, CHO cells. The following applies: read-out: SERT [%]. The essentials:
(§1)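 Single-concentration test (1×10^−6 M). Total and non-specific binding were counted by scintillation, and their difference defines specific binding.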

In the next data set the test system is sigma σ receptor. Kind of data set: Binding assay σ (non-selective), [3H]DTG, rat cerebral cortex. The following applies: percent inhibition of control specific binding; compounds tested at 1×10^−6 M. The essentials: as §1
The test system of a further data set is adrenergic α1 receptor. In words: Binding assay α1 (non-selective), [3H]prazosin, rat cerebral cortex. The following applies: percent inhibition of control specific binding; compounds tested at 1×10^−6 M. The essentials:
as §1

In a further data set the target is T2, muscarinic M3 receptor (Homo sapiens, UniProt P20309).
T2 construct: expressed in transfected cells; host or cells: CHO cells
Kind of data set: Binding assay M3 (h), [3H]4-DAMP, CHO cells. The following applies: read-out: M3 [%]. The essentials:
as §1

For data set [2], the target named is T3, serotoninergic receptor 5-HT2C (Homo sapiens, UniProt P28335).
T3 construct: expressed in transfected cells; host or cells: HEK-293 cells
T3 sequence (P28335 33-458): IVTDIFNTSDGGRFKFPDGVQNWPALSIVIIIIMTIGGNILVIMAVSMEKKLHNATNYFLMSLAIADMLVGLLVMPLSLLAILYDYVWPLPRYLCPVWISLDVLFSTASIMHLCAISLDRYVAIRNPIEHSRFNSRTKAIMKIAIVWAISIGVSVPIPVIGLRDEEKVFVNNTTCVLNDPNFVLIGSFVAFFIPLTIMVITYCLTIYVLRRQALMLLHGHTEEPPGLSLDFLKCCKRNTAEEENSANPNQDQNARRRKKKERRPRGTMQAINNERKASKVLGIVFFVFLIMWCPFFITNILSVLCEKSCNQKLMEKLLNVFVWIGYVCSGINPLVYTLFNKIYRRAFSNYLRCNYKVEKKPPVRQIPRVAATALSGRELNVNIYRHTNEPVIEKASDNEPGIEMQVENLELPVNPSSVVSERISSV
In words: Binding assay 5-HT2C (h), [3H]mesulergine, HEK-293 cells. The note with it: read-out: 5-HT2C [%]. The essentials: as §1

Data set [3] has as its target T4, dopaminergic D2 receptor (Homo sapiens, UniProt P14416). Kind of data set: Cellular functional assay, dopaminergic D2 receptor (agonism/antagonism). The class given is cell-based. The note with it: for inhibition at 1 µM: read-out: D2-antag. [%]. The method, then: (§2) The compounds were tested at the concentration of 1×10^−6M.
(§3) In the Tables ag refers to agonism, and antag to antagonism).
Target sequence in this assay (P14416 whole entry): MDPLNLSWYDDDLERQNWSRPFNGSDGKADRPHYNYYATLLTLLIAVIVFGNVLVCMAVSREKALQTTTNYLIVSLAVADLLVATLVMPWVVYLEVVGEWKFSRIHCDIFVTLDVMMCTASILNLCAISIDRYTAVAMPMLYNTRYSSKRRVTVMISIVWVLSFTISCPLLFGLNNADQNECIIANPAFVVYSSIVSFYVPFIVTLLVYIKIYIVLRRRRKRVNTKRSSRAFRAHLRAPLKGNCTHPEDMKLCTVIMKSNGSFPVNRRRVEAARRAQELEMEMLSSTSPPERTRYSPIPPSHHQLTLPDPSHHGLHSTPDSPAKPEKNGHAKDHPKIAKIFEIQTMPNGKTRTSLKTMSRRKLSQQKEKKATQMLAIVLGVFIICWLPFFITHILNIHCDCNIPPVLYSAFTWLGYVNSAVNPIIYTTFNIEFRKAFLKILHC

In data set [4] the target is T5, serotoninergic 5-HT2A receptor (Homo sapiens, UniProt P28223). Kind of data set: Cellular functional assay, serotoninergic 5-HT2A receptor (agonism/antagonism). The format is cell-based. The method, then:
[…]. The compounds were tested at the concentration of 1×10^−6M.
Conditions and methodology (by reference to the literature) of cellular functional assays are given in Table 13 and the tests results for representative compounds are given in Table 14 (dopaminergic receptor D2), in Table 15 (dopaminergic receptor D3), in Table 16 (serotoninergic receptor 5-HT1A), in Table 17 (serotoninergic receptor 5-HT2A), in Table 18 (serotoninergic receptor 5-HT6), in Table 19 (serotoninergic receptor 5-HT7), in Table 20 (adrenergic α1 receptor), in Table 21 (adrenergic α2C receptor), in Table 22 (histaminergic H1 receptor) and in Table 23 (serotoninergic 5-HT2C receptor). In the Tables ag refers to agonism, and antag to antagonism).

The target of data set [5] is T6, serotoninergic 5-HT6 receptor (Homo sapiens, UniProt P50406). In words: Cellular functional assay, serotoninergic 5-HT6 receptor (agonism/antagonism). The class given is cell-based. How it is done: as §2, §3
The target in data set [6] is T7, serotoninergic 5-HT7 receptor (Homo sapiens, UniProt P34969). In words: Cellular functional assay, serotoninergic 5-HT7 receptor (agonism/antagonism). The format is cell-based. The following applies: for activation at 1 µM: agonist effect, percent of control specific agonist response, compounds tested at 1×10^−6M, read-out: 5-HT7-ag [%]; for inhibition at 1 µM: read-out: 5-HT7-antag. [%]. The method, then:
as §2, §3

The next data set deals with dopaminergic D3 receptor (Homo sapiens, UniProt P35462). In words: Binding assay D3 (h), [3H]methyl-spiperone, CHO cells. Also on record: expressed in transfected cells; host or cells: CHO cells. The following applies: read-out: D3 [%]. The essentials:
as §1

In data set [7] the target is T6, serotoninergic 5-HT6 receptor. Kind of data set: Binding assay 5-HT6 (h), [3H]LSD, CHO cells. Also on record: expressed in transfected cells; host or cells: CHO cells. The following applies: read-out: 5-HT6. The essentials: as §1
Data set [8] has as its target T7, serotoninergic 5-HT7 receptor. Kind of data set: Binding assay 5-HT7 (h), [3H]LSD, CHO cells. The note with it: read-out: 5-HT7. Further details: expressed in transfected cells; host or cells: CHO cells. The essentials: as §1
A further data set concerns the target T8, adrenergic α2C receptor (Homo sapiens, UniProt P18825).
T8 sequence (P18825 1-462): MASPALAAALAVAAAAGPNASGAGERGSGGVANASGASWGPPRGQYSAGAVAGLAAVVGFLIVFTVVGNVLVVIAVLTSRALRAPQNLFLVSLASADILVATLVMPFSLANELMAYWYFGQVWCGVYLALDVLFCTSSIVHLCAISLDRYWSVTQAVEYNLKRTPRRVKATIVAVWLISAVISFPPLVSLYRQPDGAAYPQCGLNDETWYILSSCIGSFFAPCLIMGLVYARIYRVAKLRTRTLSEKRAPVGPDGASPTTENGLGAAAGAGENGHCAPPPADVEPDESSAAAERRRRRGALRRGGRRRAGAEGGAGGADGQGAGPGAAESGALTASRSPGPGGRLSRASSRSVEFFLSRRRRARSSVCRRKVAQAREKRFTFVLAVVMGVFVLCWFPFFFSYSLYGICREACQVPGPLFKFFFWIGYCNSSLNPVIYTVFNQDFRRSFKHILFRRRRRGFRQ
Kind of data set: Binding assay α2C (h), [3H]RX 821002, CHO cells. Also on record: expressed in transfected cells; host or cells: CHO cells. The following applies: read-out: α2C [%]. The essentials: as §1

For data set [9], the target named is T4, dopaminergic D2 receptor. Kind of data set: Binding assay D2S (h), [3H]methyl-spiperone, HEK-293 cells. The following applies: read-out: D2 [%]. Further details: expressed in transfected cells; host or cells: HEK-293 cells. The essentials: as §1
Target sequence in this assay (P14416 1-414 isoform P14416-2): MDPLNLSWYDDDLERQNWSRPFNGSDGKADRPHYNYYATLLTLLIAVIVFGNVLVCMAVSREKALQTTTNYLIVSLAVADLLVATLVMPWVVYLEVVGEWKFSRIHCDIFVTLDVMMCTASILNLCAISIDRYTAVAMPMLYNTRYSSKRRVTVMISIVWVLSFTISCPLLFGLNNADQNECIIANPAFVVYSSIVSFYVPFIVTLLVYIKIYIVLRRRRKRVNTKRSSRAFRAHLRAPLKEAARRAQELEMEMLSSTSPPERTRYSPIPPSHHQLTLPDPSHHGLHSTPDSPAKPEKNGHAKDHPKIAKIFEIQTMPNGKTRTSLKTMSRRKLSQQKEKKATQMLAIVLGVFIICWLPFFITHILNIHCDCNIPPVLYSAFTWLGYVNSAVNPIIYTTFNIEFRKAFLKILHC
Data set [10] concerns the target T9, serotoninergic 5-HT1A receptor (Homo sapiens, UniProt P08908).
T9 sequence (P08908 1-422): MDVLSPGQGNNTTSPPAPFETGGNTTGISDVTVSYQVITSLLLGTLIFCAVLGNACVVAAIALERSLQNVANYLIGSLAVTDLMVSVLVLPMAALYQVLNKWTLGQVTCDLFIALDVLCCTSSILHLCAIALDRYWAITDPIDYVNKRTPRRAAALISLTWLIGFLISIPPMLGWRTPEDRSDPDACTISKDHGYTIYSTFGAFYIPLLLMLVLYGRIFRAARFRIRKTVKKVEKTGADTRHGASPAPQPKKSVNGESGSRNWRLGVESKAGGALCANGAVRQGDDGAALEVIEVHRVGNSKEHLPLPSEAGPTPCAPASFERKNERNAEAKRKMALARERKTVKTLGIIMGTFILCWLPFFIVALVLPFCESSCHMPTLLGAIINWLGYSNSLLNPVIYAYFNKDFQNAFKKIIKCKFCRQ
In words: Binding assay 5-HT1A (h), [3H]8-OH-DPAT, HEK-293 cells. Further details: expressed in transfected cells; host or cells: HEK-293 cells. The note with it: read-out: 5-HT1A. The essentials:
as §1

Data set [11] has as its target T5, serotoninergic 5-HT2A receptor. In words: Binding assay 5-HT2A (h), [3H]ketanserin, HEK-293 cells. The following applies: read-out: 5-HT2A. Also on record: expressed in transfected cells; host or cells: HEK-293 cells. The essentials: as §1
Data set [12] deals with histaminergic H1 receptor (Homo sapiens, UniProt P35367). Kind of data set: Binding assay H1 (h), [3H]pyrilamine, HEK-293 cells. Further details: expressed in transfected cells; host or cells: HEK-293 cells. The note with it: read-out: H1 [%]. The essentials: as §1
For data set [13], the target named is T9, serotoninergic 5-HT1A receptor. Kind of data set: Cellular functional assay, serotoninergic 5-HT1A receptor (agonism/antagonism). The note with it: for inhibition at 1 µM: CHO, read-out: 5-HT1A-antag. [%]; for activation at 1 µM: agonist effect, percent of control specific agonist response (100 nM 8-OH-DPAT for control), 1×10^−6 M, 5-HT1A (h), CHO cells, read-out: 5-HT1A-ag [%]. The class given is cell-based. The method, then:
as §2, §3

For a further data set, the target named is hERG potassium channels (Homo sapiens, UniProt Q12809). In words: hERG potassium channel block, electrophysiology (IonWorks Quattro), CHO cells. The following applies: % block of hERG current, cloned hERG channels in CHO cells, IonWorks Quattro. On the technique in general: hERG is a cardiac potassium channel; its block is linked to QT prolongation.
Setting [14] is: HEK293, agonist effect, percent of control specific agonist response (3 μM dopamine for control), 1×10^−6 M, D2S (h), HEK-293 cells, read-out: D2-ag [%].

T7 sequence (P34969 whole entry): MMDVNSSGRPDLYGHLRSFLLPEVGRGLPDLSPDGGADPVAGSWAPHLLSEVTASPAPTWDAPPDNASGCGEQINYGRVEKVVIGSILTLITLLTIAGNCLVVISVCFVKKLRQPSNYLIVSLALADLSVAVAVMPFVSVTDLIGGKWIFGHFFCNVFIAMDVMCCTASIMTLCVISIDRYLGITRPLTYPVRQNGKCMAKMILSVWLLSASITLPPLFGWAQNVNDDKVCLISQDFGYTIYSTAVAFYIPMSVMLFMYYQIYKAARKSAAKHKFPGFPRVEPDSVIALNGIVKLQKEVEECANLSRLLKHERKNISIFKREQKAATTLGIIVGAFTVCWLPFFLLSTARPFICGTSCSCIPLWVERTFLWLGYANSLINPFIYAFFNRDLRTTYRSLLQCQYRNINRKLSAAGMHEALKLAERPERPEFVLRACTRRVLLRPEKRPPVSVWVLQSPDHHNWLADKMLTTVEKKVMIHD
T5 sequence (P28223 whole entry): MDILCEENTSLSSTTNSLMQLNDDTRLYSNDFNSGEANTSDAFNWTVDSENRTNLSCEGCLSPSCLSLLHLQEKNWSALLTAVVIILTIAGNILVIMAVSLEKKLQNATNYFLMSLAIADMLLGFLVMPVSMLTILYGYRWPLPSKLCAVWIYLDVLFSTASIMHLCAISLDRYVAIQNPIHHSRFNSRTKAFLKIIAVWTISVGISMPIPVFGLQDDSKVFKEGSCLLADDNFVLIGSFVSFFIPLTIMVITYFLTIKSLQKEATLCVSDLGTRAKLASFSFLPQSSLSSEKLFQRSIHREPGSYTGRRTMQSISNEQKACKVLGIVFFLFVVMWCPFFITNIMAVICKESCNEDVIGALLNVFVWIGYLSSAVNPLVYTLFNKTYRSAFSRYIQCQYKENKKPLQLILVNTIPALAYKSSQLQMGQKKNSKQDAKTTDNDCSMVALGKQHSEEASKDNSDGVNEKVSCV
dopaminergic D3 receptor, sequence (P35462 whole entry): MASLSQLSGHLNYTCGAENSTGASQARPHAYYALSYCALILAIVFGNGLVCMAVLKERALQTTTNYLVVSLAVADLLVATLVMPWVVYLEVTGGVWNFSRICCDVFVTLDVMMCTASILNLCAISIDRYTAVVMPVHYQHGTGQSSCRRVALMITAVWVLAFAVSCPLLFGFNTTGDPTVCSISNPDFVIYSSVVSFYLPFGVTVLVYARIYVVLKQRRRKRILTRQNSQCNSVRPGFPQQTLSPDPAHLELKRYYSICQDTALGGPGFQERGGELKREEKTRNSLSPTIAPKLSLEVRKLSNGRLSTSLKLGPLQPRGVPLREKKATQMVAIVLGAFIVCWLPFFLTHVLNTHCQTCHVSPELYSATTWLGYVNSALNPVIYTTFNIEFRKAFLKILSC
T6 sequence (P50406 whole entry): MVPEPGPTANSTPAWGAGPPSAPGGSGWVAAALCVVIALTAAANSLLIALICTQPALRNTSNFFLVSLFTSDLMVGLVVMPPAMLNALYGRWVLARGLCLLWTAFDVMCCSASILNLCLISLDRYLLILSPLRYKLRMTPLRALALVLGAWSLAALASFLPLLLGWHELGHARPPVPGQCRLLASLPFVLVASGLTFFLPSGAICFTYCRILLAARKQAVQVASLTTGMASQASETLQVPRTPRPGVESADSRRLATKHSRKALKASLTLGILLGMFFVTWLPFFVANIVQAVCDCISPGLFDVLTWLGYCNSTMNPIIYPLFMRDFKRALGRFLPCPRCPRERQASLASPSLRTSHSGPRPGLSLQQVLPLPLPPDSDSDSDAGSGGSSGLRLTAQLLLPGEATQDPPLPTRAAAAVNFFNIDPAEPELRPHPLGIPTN
T1 sequence (P31645 whole entry): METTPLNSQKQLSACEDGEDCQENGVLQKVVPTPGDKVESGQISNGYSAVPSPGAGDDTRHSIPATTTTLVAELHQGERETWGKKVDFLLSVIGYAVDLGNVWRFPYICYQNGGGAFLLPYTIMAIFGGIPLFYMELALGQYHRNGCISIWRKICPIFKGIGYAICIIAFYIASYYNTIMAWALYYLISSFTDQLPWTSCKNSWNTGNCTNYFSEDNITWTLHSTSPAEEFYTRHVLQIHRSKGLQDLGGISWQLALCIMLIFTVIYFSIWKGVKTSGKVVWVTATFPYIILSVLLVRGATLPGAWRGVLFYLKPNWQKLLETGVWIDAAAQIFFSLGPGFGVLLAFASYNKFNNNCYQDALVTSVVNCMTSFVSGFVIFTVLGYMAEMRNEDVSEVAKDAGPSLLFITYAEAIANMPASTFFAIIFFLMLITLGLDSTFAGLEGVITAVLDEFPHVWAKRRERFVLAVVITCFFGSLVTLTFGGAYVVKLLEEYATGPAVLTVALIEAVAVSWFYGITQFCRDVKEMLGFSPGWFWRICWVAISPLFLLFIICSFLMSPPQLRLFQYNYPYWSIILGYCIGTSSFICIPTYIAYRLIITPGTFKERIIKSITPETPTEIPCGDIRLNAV
T2 sequence (P20309 whole entry): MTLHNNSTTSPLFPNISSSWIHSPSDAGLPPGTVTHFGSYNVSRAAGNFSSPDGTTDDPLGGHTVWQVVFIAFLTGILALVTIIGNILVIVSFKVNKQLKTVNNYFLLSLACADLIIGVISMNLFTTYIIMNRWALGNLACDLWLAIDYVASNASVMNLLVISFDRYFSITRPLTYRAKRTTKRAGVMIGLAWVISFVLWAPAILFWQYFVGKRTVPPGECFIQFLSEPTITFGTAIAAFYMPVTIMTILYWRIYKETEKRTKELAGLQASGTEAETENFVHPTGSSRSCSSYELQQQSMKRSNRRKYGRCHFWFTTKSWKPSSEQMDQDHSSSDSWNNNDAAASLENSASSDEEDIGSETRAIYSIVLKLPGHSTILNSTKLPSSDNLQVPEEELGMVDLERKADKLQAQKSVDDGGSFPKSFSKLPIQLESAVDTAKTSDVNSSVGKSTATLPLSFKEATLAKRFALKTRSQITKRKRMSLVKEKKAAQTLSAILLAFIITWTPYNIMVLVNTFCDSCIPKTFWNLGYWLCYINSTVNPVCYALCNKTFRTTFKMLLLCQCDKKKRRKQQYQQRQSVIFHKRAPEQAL
hERG potassium channels, sequence (Q12809 whole entry): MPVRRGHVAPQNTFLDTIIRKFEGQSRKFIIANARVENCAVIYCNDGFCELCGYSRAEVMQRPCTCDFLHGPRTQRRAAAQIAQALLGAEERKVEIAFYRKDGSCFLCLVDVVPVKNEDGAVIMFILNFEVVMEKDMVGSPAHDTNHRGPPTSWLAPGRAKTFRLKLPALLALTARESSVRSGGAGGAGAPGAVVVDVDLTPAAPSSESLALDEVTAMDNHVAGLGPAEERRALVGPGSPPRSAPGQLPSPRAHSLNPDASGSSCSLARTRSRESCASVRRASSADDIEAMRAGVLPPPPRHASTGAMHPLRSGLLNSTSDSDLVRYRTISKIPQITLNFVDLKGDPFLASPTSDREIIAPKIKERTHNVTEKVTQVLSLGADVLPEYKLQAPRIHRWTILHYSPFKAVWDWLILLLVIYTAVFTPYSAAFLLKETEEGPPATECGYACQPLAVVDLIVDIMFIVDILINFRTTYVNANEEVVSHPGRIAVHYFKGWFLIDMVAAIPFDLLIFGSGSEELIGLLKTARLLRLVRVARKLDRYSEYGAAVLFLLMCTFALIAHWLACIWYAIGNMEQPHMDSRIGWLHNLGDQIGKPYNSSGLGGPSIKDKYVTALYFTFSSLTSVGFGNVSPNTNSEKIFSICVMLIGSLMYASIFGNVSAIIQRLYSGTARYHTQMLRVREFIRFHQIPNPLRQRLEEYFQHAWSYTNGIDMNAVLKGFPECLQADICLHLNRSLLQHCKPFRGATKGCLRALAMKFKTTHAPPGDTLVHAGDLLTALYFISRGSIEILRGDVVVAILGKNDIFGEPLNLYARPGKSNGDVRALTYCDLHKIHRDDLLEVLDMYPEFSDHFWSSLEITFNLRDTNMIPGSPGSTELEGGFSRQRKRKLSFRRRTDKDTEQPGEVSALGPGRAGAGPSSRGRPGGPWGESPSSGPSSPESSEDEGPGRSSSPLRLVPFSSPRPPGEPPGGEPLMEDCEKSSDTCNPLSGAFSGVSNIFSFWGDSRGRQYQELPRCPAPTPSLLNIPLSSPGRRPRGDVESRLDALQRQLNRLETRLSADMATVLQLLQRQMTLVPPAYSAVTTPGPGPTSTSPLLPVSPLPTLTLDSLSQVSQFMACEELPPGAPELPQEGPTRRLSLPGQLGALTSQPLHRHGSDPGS
Description for hERG potassium channels: Ability to block hERG potassium channels was determined using the electrophysiological method and cloned hERG potassium channels (KCNH2 gene, expressed in CHO cells) as biological material. The effects were evaluated using IonWorks™ Quattro system (MDS-AT).
hERG current was elicited using a pulse pattern with fixed amplitudes (conditioning prepulse: −80 mV for 25 ms; test pulse: +40 mV for 80 ms) from a holding potential of 0 mV. hERG current was measured as a difference between the peak current at 1 ms after the test step to +40 mV and the steady-state current at the end of the step to +40 mV.
Data acquisition and analyses was performed using the IonWorks Quattro™ system operation software (version 2.0.2; Molecular Devices Corporation, Union City, Calif.). Data were corrected for leak current.

With `Cc1cccc(S(=O)(=O)NCCCCN2CCN(c3noc4ccccc34)CC2)c1` [Compound 15, N-(4-(4-(1,2-Benzoxazol-3-yl)piperazin-1-yl)butyl)-3-methylbenzenesulphonamide], the inhibition at 1 µM in [1] is -3%; at muscarinic M3 receptor, -9%; in data set [2] it was 23%; at dopaminergic D2 receptor [3] (HEK293), 88%; in [4] (read-out: 5-HT2A -antag [%]), 100%; in data set [5] (read-out: 5-HT6-antag. [%]), 21%. In addition, the inhibition at 1 µM in data set [6] was 96%; on dopaminergic D3 receptor it was 88%; in data set [7] it was 71%; in data set [8], 100%; on adrenergic α2C receptor, 98%; on dopaminergic D2 receptor [9], 90%. Also, the values for the inhibition at 1 µM in data set [10], in data set [11] and in data set [12] were 86%, 99% and 84%, respectively. In addition, in the data set with sigma σ receptor, the “σ [%]” value was found to be 47%. Also, in the data set with adrenergic α1 receptor, the “α1 [%]” value worked out at 102%. In addition, the activation at 1 µM is 2% on dopaminergic D2 receptor [3] (setting [14]); -1% in data set [4] (read-out: 5-HT2A -ag [%]); 2% in data set [5] (agonist effect, percent of control specific agonist response, compounds tested at 1×10^−6M, read-out: 5-HT6-ag [%]); 0% in data set [6].
With `O=S(=O)(NCCCCN1CCN(c2cccc3[nH]ccc23)CC1)c1ccc(F)c(F)c1` [Compound 29, 3,4-Difluoro-N-{4-[4-(1H-indol-4-yl)piperazin-1-yl]butyl}benzenesulphonamide], the inhibition at 1 µM in [1] was determined as 12%; at muscarinic M3 receptor, 25%; in data set [2], 11%; at dopaminergic D2 receptor [3] (HEK293), 99%; in data set [13], 26%; in [6], 9%. The inhibition at 1 µM at dopaminergic D3 receptor is 98%; in data set [7], 37%; in [8], 91%; on adrenergic α2C receptor it was 98%; at dopaminergic D2 receptor [9], 94%; in data set [10] it was 99%. The results for the inhibition at 1 µM in data set [11] and in [12] were 64% and 74%, respectively. Moreover, in the data set with sigma σ receptor, the “σ [%]” value was found to be 93%. In the data set on adrenergic α1 receptor, the “α1 [%]” value came to 99%. The results for the activation at 1 µM (at dopaminergic D2 receptor [3] (setting [14]); in [13]; in data set [6]) were 45%, 71% and 5%, respectively.
With `O=S(=O)(NCCCCN1CCN(c2cccc3[nH]ccc23)CC1)c1c[nH]c2ncccc12` [Compound 31, N-{4-[4-(1H-Indol-4-yl)piperazin-1-yl]butyl}-1H-pyrrolo[2,3-b]pyridine-3-sulphonamide], the inhibition at 1 µM in [1] is -2%; at dopaminergic D3 receptor it was 96%; in data set [7], 18%; in [8], 87%; on dopaminergic D2 receptor [9], 38%; in [10], 82%. Also, the inhibition at 1 µM in [11] came to 36%. Also, the “α1 [%]” value with adrenergic α1 receptor is recorded as 101%. Further, the “hERG [%]” value at hERG potassium channels worked out at 2%.
On to `O=S(=O)(NCCCCN1CCN(c2cccc3[nH]ccc23)CC1)c1ccc(C(F)(F)F)cc1` [Compound 360, N-[4-[4-(1H-Indol-4-yl)piperazin-1-yl]butyl]-4-(trifluoromethyl)benzenesulphonamide], for which the inhibition at 1 µM stood at 8% in [1]; 100% at dopaminergic D3 receptor; 67% in data set [7]; 100% in data set [8]; 99% on dopaminergic D2 receptor [9]; 83% in data set [10]. In addition, the inhibition at 1 µM in [11] is 67%. For the same compound, in the data set on adrenergic α1 receptor, the “α1 [%]” value came out at 93%. Further, the “hERG [%]” value at hERG potassium channels was 5%.
For the compound `Cc1[nH]c2ccc(Cl)cc2c1C1=CCN(CCNS(=O)(=O)c2cccc(Cl)c2)CC1` [Compound 452, 3-Chloro-N-[2-[4-(5-chloro-2-methyl-1H-indol-3-yl)-3,6-dihydro-2H-pyridin-1-yl]ethyl]-benzenesulphonamide], the inhibition at 1 µM in data set [1] came out at 18%; on dopaminergic D2 receptor [3] (HEK293), 53%; in data set [13], 7%; on dopaminergic D3 receptor it was 14%; in data set [7], 108%; in data set [8] it was 41%. Further, the inhibition at 1 µM on dopaminergic D2 receptor [9] was found to be 42%. For the same compound, in the data set on adrenergic α1 receptor, the “α1 [%]” value is reported as 14%. For the same compound, the activation at 1 µM stood at 24% on dopaminergic D2 receptor [3] (HEK293, read-out: D2-ag [%]) and 30% in data set [13].
